Test results reported in US9850183B2, “Conjugates derived from non-steroidal anti-inflammatory drugs and methods of use thereof in imaging” (Reiley Pharmaceuticals, Inc., priority 2014, dated 2017).

Columns and labels:
human COX-2 = molecular target: T1, human COX-2 (Homo sapiens, UniProt P35354); assay: COX-2 enzyme assay (EIA kit, PGF2α readout); type: biochemical; details: human COX-2 enzyme, EIA; 15 min pre-incubation at 37° C.; read-out: COX-2 IC50 (μM) enzyme
T1 construct: purchased Cayman Chemical Co., Ann Arbor, Mich., USA 701080
T1 sequence (P35354 18-604): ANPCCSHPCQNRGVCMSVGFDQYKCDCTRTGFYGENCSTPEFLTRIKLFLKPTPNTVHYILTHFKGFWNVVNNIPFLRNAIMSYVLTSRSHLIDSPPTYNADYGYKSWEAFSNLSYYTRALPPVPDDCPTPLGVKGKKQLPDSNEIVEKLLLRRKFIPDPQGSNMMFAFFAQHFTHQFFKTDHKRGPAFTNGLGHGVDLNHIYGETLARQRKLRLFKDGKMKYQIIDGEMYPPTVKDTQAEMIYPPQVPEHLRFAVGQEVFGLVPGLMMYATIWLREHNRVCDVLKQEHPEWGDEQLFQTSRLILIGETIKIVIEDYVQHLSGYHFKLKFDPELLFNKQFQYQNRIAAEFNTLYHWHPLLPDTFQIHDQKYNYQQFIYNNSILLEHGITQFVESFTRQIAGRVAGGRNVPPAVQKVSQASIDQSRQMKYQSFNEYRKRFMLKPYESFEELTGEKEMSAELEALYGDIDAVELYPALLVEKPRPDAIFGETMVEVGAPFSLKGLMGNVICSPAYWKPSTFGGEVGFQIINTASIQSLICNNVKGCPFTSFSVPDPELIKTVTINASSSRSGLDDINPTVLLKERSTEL
Method: (§1) The ability of compounds to inhibit ovine COX-1 and human COX-2 was determined using a commercially available enzyme immunoassay (EIA) kit (catalog no. 701090 (COX-1); 701080 (COX-2) Cayman Chemical Co., Ann Arbor, Mich., USA) according to the manufacturer's protocol. COX catalyzes the first step in the biosynthesis of AA to PGH2. PGF2α, produced from PGH2 by reduction with stannous chloride, was measured by EIA (ACE™ competitive EIA, Cayman Chemical, Ann Arbor, Mich., USA). Briefly, to a series of supplied reaction buffer solutions [960 μl 0.1 M Tris-HCl (pH 8.0) containing 5 mM EDTA and 2 mM phenol] with either COX-1 or COX-2 (10 μl) enzyme in the presence of heme (10 μl), 10 μl of various concentrations of test drug solutions were added. These solutions were incubated for 15 min at 37° C. and subsequently 10 μl AA solution (100 μM) was added. The COX reaction was stopped by the addition of 30 μl stannus chloride after 2 min, mixed immediately, supernatants were 2000 fold diluted. The produced PGF2α was measured by EIA. This assay is based on the competition between PGs and a PG-acetylcholinesterase conjugate (PG tracer) for a limited amount of PG antiserum. The amount of PG tracer that is able to bind to the PG antiserum is inversely proportional to the concentration of PGs in the wells since the concentration of the PG tracer is held at a constant while the concentration of PGs varies. The specific antiserum-PG complex bound to a mouse anti-rabbit IgG that had been previously attached to the well. The plate was washed to remove any unbound reagents and 200 μl Ellman's reagent (5,5′-dithiobis-(2-nitrobenzoic acid), which contains the substrate to acetylcholine esterase, was added to the well. The product of this enzymatic reaction generates a distinct yellow color that absorbs at 406 nm. The intensity of this color, determined by spectrophotometry, is proportional to the amount of PG tracer bound to the well, which is inversely proportional to the amount of PGs present in the well during the incubation. Percent inhibition was calculated by the comparison of the compounds treated to the various control incubations.
(§2) Dose-response curves were generated using XLFit (IDBS, Surrey, UK) or Prism (GraphPad Software, La Jolla, Calif., US) to calculate IC50 values for each compound tested.

COX-2 = molecular target: T2, COX-2 (Mus musculus, UniProt Q05769); assay: Cell-based COX-2 assay (PGE2 in LPS/IFN-g stimulated RAW264.7 cells); details: RAW264.7 murine macrophages, 1 μg/ml LPS and 10 U/ml IFN-g for 7 h, PGE2 readout
T2 construct: endogenous in cells; host or cells: RAW264.7 murine macrophages, stimulated with LPS and IFN-g
T2 sequence (Q05769 18-604): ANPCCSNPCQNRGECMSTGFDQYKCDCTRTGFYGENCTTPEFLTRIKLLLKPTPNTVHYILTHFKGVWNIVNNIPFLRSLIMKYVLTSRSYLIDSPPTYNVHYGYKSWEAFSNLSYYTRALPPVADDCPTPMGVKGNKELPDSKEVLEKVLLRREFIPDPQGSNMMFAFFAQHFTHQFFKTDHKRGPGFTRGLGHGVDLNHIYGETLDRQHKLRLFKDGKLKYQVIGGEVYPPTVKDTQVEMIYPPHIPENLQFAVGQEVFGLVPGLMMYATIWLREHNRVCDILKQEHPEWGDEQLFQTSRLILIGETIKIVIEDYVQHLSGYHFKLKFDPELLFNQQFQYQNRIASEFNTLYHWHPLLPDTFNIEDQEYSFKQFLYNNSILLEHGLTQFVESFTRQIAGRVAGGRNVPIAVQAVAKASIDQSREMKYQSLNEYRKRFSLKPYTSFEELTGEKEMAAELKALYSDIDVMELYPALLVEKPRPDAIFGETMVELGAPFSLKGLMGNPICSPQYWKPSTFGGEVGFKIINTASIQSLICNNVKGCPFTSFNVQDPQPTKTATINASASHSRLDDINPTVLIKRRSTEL
Method: RAW264.7 murine macrophages were obtained from the Cell Bank of Shanghai Institute of Biochemistry and Cell Biology, Chinese Academy of Sciences (Shanghai, China) and cultured in Dulbecco's modified Eagle's medium containing 100 U/ml penicillin and 100 μg/ml streptomycin at 37° C. in 5% CO2.
RAW264.7 cells were plated at a density of 2.5×10^5/ml cells in a 96-well plate with 0.1 ml of culture medium per well and cultured overnight. The cells were pre-incubated for 30 min with various doses of compounds and stimulated for 7 h with 1 μg/ml LPS and 10 U/ml IFN-g. The cell culture supernatants were collected immediately following treatment and centrifuged at 1,000 rpm for 5 min to remove the particulate matter. PGE2 was determined using a Prostaglandin E2 assay kit (catalog no. 62P2APEB; Cisbio Co.,). 10 μL of cell supernatant was transferred to a 384-well low volume plate (e.g. Corning® 3544), 5 μL of PGE2-d2 was added, followed by 5 μL anti-PGE2 Cryptate as a negative control. Replace the standard by 10 μL of diluent and PGE2-d2 by 5 μL of reconstitution buffer, Cal0 (for positive control), replace the standard by 10 μL of diluent. Incubate at 4° C. overnight. After centrifuging at 1,000 rpm for 1 min, the dual fluorescence emissions of 615 and 665 nm with a 320 nm excitation were measured using an Envision plate reader (Perkin Elmer, Shelton, Conn.). The results are expressed as the ratio of 665 nm/615 nm emissions.
as §2

ovine COX-1 = molecular target: T3, ovine COX-1 (Ovis aries, UniProt P05979); assay: biochemical; details: ovine COX-1 enzyme, EIA; read-out: COX-1 IC50 (μm) enzyme
T3 sequence (P05979 25-600): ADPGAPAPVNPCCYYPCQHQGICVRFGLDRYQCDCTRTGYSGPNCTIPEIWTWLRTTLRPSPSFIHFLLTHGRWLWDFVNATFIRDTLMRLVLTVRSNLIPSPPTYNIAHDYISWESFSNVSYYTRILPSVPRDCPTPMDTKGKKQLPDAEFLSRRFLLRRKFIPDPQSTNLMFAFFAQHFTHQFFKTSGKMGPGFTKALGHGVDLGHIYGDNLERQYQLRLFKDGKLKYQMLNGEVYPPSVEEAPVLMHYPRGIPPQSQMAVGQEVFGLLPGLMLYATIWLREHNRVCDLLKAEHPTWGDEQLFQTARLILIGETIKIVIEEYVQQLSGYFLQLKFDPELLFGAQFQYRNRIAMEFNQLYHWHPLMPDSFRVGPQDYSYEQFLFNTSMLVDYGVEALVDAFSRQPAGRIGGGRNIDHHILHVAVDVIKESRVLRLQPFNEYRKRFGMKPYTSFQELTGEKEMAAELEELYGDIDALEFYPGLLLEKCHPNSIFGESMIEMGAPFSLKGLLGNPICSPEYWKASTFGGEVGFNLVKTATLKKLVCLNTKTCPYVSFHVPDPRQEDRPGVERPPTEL
Method: as §1, §2

SMILES: COc1ccc2c(c1)c(CC(=O)NCCCOCCC[N+]13CC[S][Re-]14(=[O])[S]CC[N]4CC3)c(C)n2C(=O)c1ccc(Cl)cc1 (stereo not drawn) [Compound 306]
- IC50 (human COX-2): 0.7 µM
- IC50 (COX-2): 0.2 µM
- IC50 (ovine COX-1): > 30000 nM
